Measurements taken from the supplement of paper PMC10627819.

Legend:
[1] = test system: B. subtilis 168; assay: fitness (endpoint OD595 vs no drug) (fraction); higher = more growth
In short: (§1)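 Volumes were 30 µl per well, or 55 µl for S. pneumoniae, in 384-well plates inoculated at OD595 0.01. Media were TSB, LB Lennox or CY at 37 °C, and OD595 was read every 30 min for 14 h with first-reading background subtraction. Fitness is the ratio of optical density at stationary-phase entry to the robust mean of no-drug controls. That ratio is capped at 1.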

[2] = test system: S. aureus Newman; assay: as above
In short: as §1

[3] = test system: S. pneumoniae D39V; assay: as above
In short: as §1

[4] = test system: B. subtilis 168; assay: Bliss interaction score (quartile over a dose matrix) (fitness difference); higher = more antagonism (negative = synergy)
In short: (§2)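 Fitness was derived from optical density at entry into stationary phase, divided by the robust mean of the no-drug wells on the same plate. That reading was taken as OD595, and the ratio was capped at 1. Single-drug fitness was inferred from the combination data. The Bliss score, observed fitness minus the expected product of single-drug fitness, was summarised as quartiles over technical, biological and donor/recipient replicates.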

[5] = test system: S. aureus DSM 20231; assay: as above
In short: as §2

[6] = test system: S. aureus Newman; assay: as above
In short: as §2

[7] = test system: S. pneumoniae D39V; assay: as above
In short: as §2
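Wherever Bliss interaction score (quartile over a dose matrix) is given: first quartile when negative (synergy) and third quartile when positive (antagonism).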

CO/N=C(\C(=O)N[C@@H]1C(=O)N2C(C(=O)O)=C(COC(C)=O)CS[C@H]12)c1csc(N)n1 [Cefotaxime] + CN[C@@H]1[C@H](O[C@H]2[C@H](O[C@H]3[C@H](O)[C@@H](O)[C@H](N=C(N)N)[C@@H](O)[C@@H]3N=C(N)N)O[C@@H](C)[C@]2(O)C=O)O[C@@H](CO)[C@H](O)[C@H]1O [Streptomycin]
fitness, one replicate
Settings | first compound 0.0018 µg/mL | first compound 0.0035 µg/mL | first compound 0.007 µg/mL | first compound 0.00775 µg/mL | first compound 0.0155 µg/mL | first compound 0.031 µg/mL
[1], partner 2 µg/mL | – | – | – | 0.784 | 0.492 | 0.414
[1], partner 4 µg/mL | – | – | – | 0.0757 | 0.0218 | 0.0306
[1], partner 8 µg/mL | – | – | – | 0.0214 | 0.0302 | 0.0308
[3], partner 16 µg/mL | 0.92 | 0.881 | 0.654 | – | – | –

fitness
Settings | partner 1 µg/mL | partner 2 µg/mL | partner 4 µg/mL | partner 8 µg/mL
[1], first compound 0.5 µg/mL | – | 0.0795 | 0.043 | 0.0401
[1], first compound 1 µg/mL | – | 0.0611 | 0.0445 | 0.0309
[1], first compound 2 µg/mL | – | 0.061 | 0.048 | 0.0478
[2], first compound 0.078 µg/mL | 0.761 | 0.757 | 0.72 | –
[2], first compound 0.156 µg/mL | 0.589 | 0.589 | 0.474 | –
[2], first compound 0.312 µg/mL | 0.382 | 0.29 | 0.155 | –
[2], first compound 0.625 µg/mL | 0.114 | 0.0719 | 0.0326 | –
[2], first compound 1.25 µg/mL | 0.0262 | 0.0178 | 0.0244 | –
[2], first compound 2.5 µg/mL | 0.0379 | 0.0307 | 0.0187 | –
[3], first compound 0.0018 µg/mL | – | 0.966 | 0.996 | 0.964
[3], first compound 0.0035 µg/mL | – | 0.945 | 0.974 | 0.963
[3], first compound 0.007 µg/mL | – | 0.787 | 0.822 | 0.846

Settings | Bliss interaction score
[4] | -0.105
[5] | -0.0464
[6] | -0.0376
[7] | 0.0714

COc1cccc2c1C(=O)c1c(O)c3c(c(O)c1C2=O)C[C@@](O)(C(=O)CO)C[C@@H]3O[C@H]1C[C@H](N)[C@H](O)[C@H](C)O1 [Doxorubicin] + CC(C1CCC(C(O1)OC2C(CC(C(C2O)OC3C(C(C(CO3)(C)O)NC)O)N)N)N)NC [Gentamicin]
main component drawn
Settings | fitness
[1], first compound 0.625 µg/mL, partner 0.0625 µg/mL | 0.905
[1], first compound 0.625 µg/mL, partner 0.25 µg/mL | 0.079
[1], first compound 1.25 µg/mL, partner 0.0625 µg/mL | 0.804
[1], first compound 1.25 µg/mL, partner 0.25 µg/mL | 0.086
[1], first compound 2.5 µg/mL, partner 0.25 µg/mL | 0.0548
[2], first compound 0.625 µg/mL, partner 0.375 µg/mL | 0.753
[2], first compound 0.625 µg/mL, partner 0.5 µg/mL | 0.841
[2], first compound 0.625 µg/mL, partner 0.75 µg/mL | 0.778
[2], first compound 0.625 µg/mL, partner 1 µg/mL | 0.937
[2], first compound 0.625 µg/mL, partner 1.5 µg/mL | 0.777
[2], first compound 0.625 µg/mL, partner 2 µg/mL | 0.875
[2], first compound 1.25 µg/mL, partner 0.375 µg/mL | 0.794
[2], first compound 1.25 µg/mL, partner 0.5 µg/mL | 0.783
[2], first compound 1.25 µg/mL, partner 0.75 µg/mL | 0.784
[2], first compound 1.25 µg/mL, partner 1 µg/mL | 0.826
[2], first compound 1.25 µg/mL, partner 1.5 µg/mL | 0.793
[2], first compound 1.25 µg/mL, partner 2 µg/mL | 0.887
[2], first compound 2.5 µg/mL, partner 0.375 µg/mL | 0.774
[2], first compound 2.5 µg/mL, partner 0.5 µg/mL | 0.734
[2], first compound 2.5 µg/mL, partner 0.75 µg/mL | 0.788
[2], first compound 2.5 µg/mL, partner 1 µg/mL | 0.779
[2], first compound 2.5 µg/mL, partner 1.5 µg/mL | 0.796
[2], first compound 2.5 µg/mL, partner 2 µg/mL | 0.809
[3], first compound 0.25 µg/mL, partner 2 µg/mL | 0.919
[3], first compound 0.25 µg/mL, partner 4 µg/mL | 0.919
[3], first compound 0.25 µg/mL, partner 8 µg/mL | 0.882
[3], first compound 0.5 µg/mL, partner 2 µg/mL | 0.937
[3], first compound 0.5 µg/mL, partner 4 µg/mL | 0.943
[3], first compound 0.5 µg/mL, partner 8 µg/mL | 0.848
[3], first compound 1 µg/mL, partner 2 µg/mL | 0.806
[3], first compound 1 µg/mL, partner 4 µg/mL | 0.822
[3], first compound 1 µg/mL, partner 8 µg/mL | 0.76

main component drawn
Settings | Bliss interaction score
[4] | -0.258
[5] | 0.037
[6] | -0.0672
[7] | 0.0449

O=C(O)c1cn(C2CC2)c2cc(N3CCNCC3)c(F)cc2c1=O [Ciprofloxacin] + CCN(CC)CCOC(=O)c1ccc(N)cc1 [Procaine]
fitness
Settings | partner 85.5 µg/mL | partner 171 µg/mL | partner 342 µg/mL
[1], first compound 0.0098 µg/mL | 0.883 | 0.918 | 0.918
[1], first compound 0.0195 µg/mL | 0.688 | 0.755 | 0.721
[1], first compound 0.039 µg/mL | 0.0386 | 0.0363 | 0.0396
[2], first compound 0.0375 µg/mL | 0.65 | 0.644 | 0.635
[2], first compound 0.075 µg/mL | 0.658 | – | –
[3], first compound 0.125 µg/mL | ≥ 1 | ≥ 1 | ≥ 1
[3], first compound 0.25 µg/mL | 0.9 | 0.923 | 0.91

Settings | Bliss interaction score
[4] | -0.0792
[5] | -0.053
[6] | 0.0759
[7] | 0.0982

CN(C)c1cc(NC(=O)CNC(C)(C)C)c(O)c2c1C[C@H]1C[C@H]3[C@H](N(C)C)C(O)=C(C(N)=O)C(=O)[C@@]3(O)C(O)=C1C2=O [Tigecycline] + CC1=C\[C@@H](O)CC(=O)Cc2nc(co2)C(=O)N2CCC=C2C(=O)O[C@H](C(C)C)[C@H](C)/C=C/C(=O)NC\C=C\1 [Virginiamycin M1]
fitness
Settings | first compound 0.039 µg/mL | first compound 0.078 µg/mL | first compound 0.156 µg/mL | first compound 0.65 µg/mL | first compound 1.3 µg/mL | first compound 2.6 µg/mL
[1], partner 0.0625 µg/mL | 0.977 | 0.987 | 0.96 | – | – | –
[1], partner 0.125 µg/mL | 0.95 | 0.938 | 0.954 | – | – | –
[1], partner 0.25 µg/mL | 0.997 | 0.989 | 0.953 | – | – | –
[2], partner 0.0625 µg/mL | 0.982 | ≥ 1 | ≥ 1 | – | – | –
[2], partner 0.125 µg/mL | 0.998 | 0.999 | ≥ 1 | – | – | –
[2], partner 0.25 µg/mL | 0.993 | 0.996 | ≥ 1 | – | – | –
[3], partner 0.5 µg/mL | – | – | – | 0.99 | 0.961 | 0.976
[3], partner 1 µg/mL | – | – | – | 0.946 | 0.951 | 0.956
[3], partner 2 µg/mL | – | – | – | 0.919 | 0.904 | 0.931

one replicate
Settings | fitness
[1], first compound 0.125 µg/mL, partner 0.0625 µg/mL | ≥ 1
[1], first compound 0.125 µg/mL, partner 0.125 µg/mL | ≥ 1
[1], first compound 0.125 µg/mL, partner 0.25 µg/mL | ≥ 1
[1], first compound 0.25 µg/mL, partner 0.0625 µg/mL | 0.908
[1], first compound 0.25 µg/mL, partner 0.125 µg/mL | 0.908
[1], first compound 0.25 µg/mL, partner 0.25 µg/mL | 0.98
[1], first compound 0.5 µg/mL, partner 0.0625 µg/mL | 0.959
[1], first compound 0.5 µg/mL, partner 0.125 µg/mL | 0.903
[1], first compound 0.5 µg/mL, partner 0.25 µg/mL | 0.925
[2], first compound 0.039 µg/mL, partner 0.5 µg/mL | 0.817
[2], first compound 0.039 µg/mL, partner 1 µg/mL | 0.983
[2], first compound 0.039 µg/mL, partner 2 µg/mL | 0.768
[2], first compound 0.078 µg/mL, partner 0.5 µg/mL | 0.817
[2], first compound 0.078 µg/mL, partner 1 µg/mL | 0.877
[2], first compound 0.078 µg/mL, partner 2 µg/mL | 0.742
[2], first compound 0.156 µg/mL, partner 0.5 µg/mL | 0.86
[2], first compound 0.156 µg/mL, partner 1 µg/mL | 0.872
[2], first compound 0.156 µg/mL, partner 2 µg/mL | 0.745
[3], first compound 0.65 µg/mL, partner 0.15 µg/mL | 0.982
[3], first compound 0.65 µg/mL, partner 0.3 µg/mL | 0.92
[3], first compound 1.3 µg/mL, partner 0.15 µg/mL | 0.963
[3], first compound 1.3 µg/mL, partner 0.3 µg/mL | 0.914
[3], first compound 2.6 µg/mL, partner 0.15 µg/mL | 0.928
[3], first compound 2.6 µg/mL, partner 0.3 µg/mL | 0.86

Settings | Bliss interaction score
[4] | -0.0387
[5] | 0.109
[6] | -0.0271
[7] | -0.0538
